According to US20240384350A1, “METHODS OF TREATING CANCER WITH KINASE INHIBITORS” (BOARD OF REGENTS, THE UNIVERSITY OF TEXAS SYSTEM, priority 2021, published 2024):

Tests used:
Assay in all cases: Ba/F3 drug screening, Cell Titer Glo, IC50 Mut/WT
Type in all cases: cell-based
EGFR A763insFQEA = molecular target: T1, EGFR A763insFQEA (Homo sapiens, UniProt P00533, INS763FQEA); details: Classical-Like, 72 hours
T1 construct: expressed in transfected cells; host or cells: Ba/F3 cells, retroviral pBabe-Puro vector
Procedure: (§1) Data represent the ratio of the IC50 value for a given TKI for cells with a classical-like EGFR mutation to the IC50 value for cells with wildtype EGFR.
(§2) Ba/F3 cell generation, drug screening, and IC50 approximations. Ba/F3 cells were obtained as a gift from Dr. Gordon Mills (MD Anderson Cancer Center), and maintained in RPMI (Sigma) containing 10% FBS, 1% penicillin/streptomycin, and 10 ng/ml recombinant mIL-3 (R&D Biosystems). To establish stable Ba/F3 cell lines, Ba/F3 cells were transduced with retroviruses containing mutant EGFR plasmids for 12-24 hours.
(§3) After 48-72 hours of transduction, 2 μg/ml puromycin (Invitrogen) was added to Ba/F3 cell lines in complete RPMI. To select for EGFR positive cell lines, cells were stained with PE-EGFR (Biolegend) and sorted by FACS. After sorting, EGFR positive cells were maintained in RPMI containing 10% FBS, 1% penicillin/streptomycin, and 1 ng/ml EGF to support cell viability. […] Shortly, cells were plated in 384-well plates (Greiner Bio-One) at 2000-3000 cells per well in technical triplicate. Seven different concentrations of TKIs or DMSO vehicle were added to reach a final volume of 40 μL per well. After 72 hours, 11 μL of Cell Titer Glo (Promega) was added to each well. Plates were incubated for a minimum of 10 minutes, and bioluminescence was determined using a FLUOstar OPTIMA plate reader (BMG LABTECH). Raw bioluminescence values were normalized to DMSO control treated cells, and values were plotted in GraphPad Prism. […] Drug screens were performed in technical triplicate on each plate and either duplicate or triplicate biological replicates.

EGFR V769L = molecular target: T2, EGFR V769L (Homo sapiens, UniProt P00533, V769L); details: PACC; V769L; Ba/F3; 72 hours
T2 construct: expressed in transfected cells; host or cells: Ba/F3

EGFR L858R T790M V843I = molecular target: T3, EGFR L858R T790M V843I (Homo sapiens, UniProt P00533, L858R/T790M/V843I); details: T790M-like-3S, 72 hours
T3 construct: expressed in transfected cells; host or cells: Ba/F3
Procedure: Data represent the ratio of the IC50 value for a given TKI for cells with a T790M-like-3S EGFR mutation to the IC50 value for cells with wildtype EGFR.
as §2
(§4) After 48-72 hours of transduction, 2 μg/ml puromycin (Invitrogen) was added to Ba/F3 cell lines in complete RPMI. To select for EGFR positive cell lines, cells were stained with PE-EGFR (Biolegend) and sorted by FACS. After sorting, EGFR positive cells were maintained in RPMI containing 10% FBS, 1% penicillin/streptomycin, and 1 ng/ml EGF to support cell viability. Drug screening was performed as previously described^41,42. Shortly, cells were plated in 384-well plates (Greiner Bio-One) at 2000-3000 cells per well in technical triplicate. Seven different concentrations of TKIs or DMSO vehicle were added to reach a final volume of 40 μL per well. After 72 hours, 11 μL of Cell Titer Glo (Promega) was added to each well. Plates were incubated for a minimum of 10 minutes, and bioluminescence was determined using a FLUOstar OPTIMA plate reader (BMG LABTECH). Raw bioluminescence values were normalized to DMSO control treated cells, and values were plotted in GraphPad Prism. […] Drug screens were performed in technical triplicate on each plate and either duplicate or triplicate biological replicates.

EGFR Ex19del T790M C797S = molecular target: T4, EGFR Ex19del T790M C797S (Homo sapiens, UniProt P00533, C797S/DEL746-750/T790M); details: T790M-like-3R, 72 hours
T4 construct: expressed in transfected cells; host or cells: Ba/F3

EGFR L861Q = molecular target: T5, EGFR L861Q (Homo sapiens, UniProt P00533, L861Q); details: Classical-Like, 72 hours
T5 construct: expressed in transfected cells; host or cells: Ba/F3 cells, retroviral pBabe-Puro vector
Procedure: as §1, §2, §3

EGFR Ex19del/L792H = molecular target: T6, EGFR Ex19del/L792H (Homo sapiens, UniProt P00533, DEL746-750/L792H); details: PACC; Ex19del/L792H; Ba/F3; 72 hours
T6 construct: expressed in transfected cells; host or cells: Ba/F3
Procedure: (§5) Data represent the ratio of the IC50 value for a given TKI for cells with a PACC EGFR mutation to the IC50 value for cells with wildtype EGFR.
as §2, §4

EGFR K754E = molecular target: T7, EGFR K754E (Homo sapiens, UniProt P00533, K754E); details: Classical-Like, 72 hours
T7 construct: expressed in transfected cells; host or cells: Ba/F3 cells, retroviral pBabe-Puro vector
Procedure: as §1, §2, §3

EGFR S784F = molecular target: T8, EGFR S784F (Homo sapiens, UniProt P00533, S784F); details: Classical-Like, 72 hours
T8 construct: expressed in transfected cells; host or cells: Ba/F3 cells, retroviral pBabe-Puro vector (vector made by GeneScript from EGFR WT)

EGFR L858R/T790M/C797S = molecular target: T9, EGFR L858R/T790M/C797S (Homo sapiens, UniProt P00533, C797S/L858R/T790M); details: T790M-like-3R, 72 hours
T9 construct: expressed in transfected cells; host or cells: Ba/F3
Procedure: Data represent the ratio of the IC50 value for a given TKI for cells with a T790M-like-3R EGFR mutation to the IC50 value for cells with wildtype EGFR.
as §2
After 48-72 hours of transduction, 2 μg/ml puromycin (Invitrogen) was added to Ba/F3 cell lines in complete RPMI. To select for EGFR positive cell lines, cells were stained with PE-EGFR (Biolegend) and sorted by FACS. After sorting, EGFR positive cells were maintained in RPMI containing 10% FBS, 1% penicillin/streptomycin, and 1 ng/ml EGF to support cell viability. […] Shortly, cells were plated in 384-well plates (Greiner Bio-One) at 2000-3000 cells per well in technical triplicate. Seven different concentrations of TKIs or DMSO vehicle were added to reach a final volume of 40 μL per well. After 72 hours, 11 μL of Cell Titer Glo (Promega) was added to each well. Plates were incubated for a minimum of 10 minutes, and bioluminescence was determined using a FLUOstar OPTIMA plate reader (BMG LABTECH). Raw bioluminescence values were normalized to DMSO control treated cells, and values were plotted in GraphPad Prism. […] Drug screens were performed in technical triplicate on each plate and either duplicate or triplicate biological replicates. […] Statistical differences between groups were determined by ANOVA as described in the figure legends.

EGFR E709K L858R = molecular target: T10, EGFR E709K L858R (Homo sapiens, UniProt P00533, E709K/L858R); details: Classical-Like, 72 hours
T10 construct: expressed in transfected cells; host or cells: Ba/F3 cells, retroviral pBabe-Puro vector

EGFR E709K G719S = molecular target: T11, EGFR E709K G719S (Homo sapiens, UniProt P00533, E709K/G719S); details: PACC; E709K G719S; Ba/F3; 72 hours
T11 construct: expressed in transfected cells; host or cells: Ba/F3
Procedure: as §5, §2, §4

EGFR N771dupN = molecular target: T12, EGFR N771dupN (Homo sapiens, UniProt P00533, DUP771-771); details: Ex20, 72 hours
T12 construct: expressed in transfected cells; host or cells: Ba/F3 cells, retroviral pBabe-Puro vector

EGFR G719S = molecular target: T13, EGFR G719S (Homo sapiens, UniProt P00533, G719S); details: PACC; G719S; Ba/F3; 72 hours
T13 construct: expressed in transfected cells; host or cells: Ba/F3
Procedure: as §5, §2, §4

EGFR Ex19del/T790M/L792H = molecular target: T14, EGFR Ex19del/T790M/L792H (Homo sapiens, UniProt P00533, DEL746-750/L792H/T790M); details: T790M-like-3R, 72 hours
T14 construct: expressed in transfected cells; host or cells: Ba/F3

EGFR K757R = molecular target: T15, EGFR K757R (Homo sapiens, UniProt P00533, K757R); details: PACC; K757R; Ba/F3; 72 hours
T15 construct: expressed in transfected cells; host or cells: Ba/F3
Procedure: as §5, §2
(§6) After 48-72 hours of transduction, 2 μg/ml puromycin (Invitrogen) was added to Ba/F3 cell lines in complete RPMI. To select for EGFR positive cell lines, cells were stained with PE-EGFR (Biolegend) and sorted by FACS. After sorting, EGFR positive cells were maintained in RPMI containing 10% FBS, 1% penicillin/streptomycin, and 1 ng/ml EGF to support cell viability. Drug screening was performed as previously described^41,42. Shortly, cells were plated in 384-well plates (Greiner Bio-One) at 2000-3000 cells per well in technical triplicate. Seven different concentrations of TKIs or DMSO vehicle were added to reach a final volume of 40 μL per well. After 72 hours, 11 μL of Cell Titer Glo (Promega) was added to each well. Plates were incubated for a minimum of 10 minutes, and bioluminescence was determined using a FLUOstar OPTIMA plate reader (BMG LABTECH). Raw bioluminescence values were normalized to DMSO control treated cells, and values were plotted in GraphPad Prism. […] Drug screens were performed in technical triplicate on each plate and either duplicate or triplicate biological replicates. […] Statistical differences between groups were determined by ANOVA as described in the figure legends.

EGFR Ex19del L718V = molecular target: T16, EGFR Ex19del L718V (Homo sapiens, UniProt P00533, DEL746-750/L718V); details: PACC; Ex19del L718V; Ba/F3; 72 hours
T16 construct: expressed in transfected cells; host or cells: Ba/F3
Procedure: as §5, §2, §4

EGFR T725M = molecular target: T17, EGFR T725M (Homo sapiens, UniProt P00533, T725M); details: Classical-Like, 72 hours
T17 construct: expressed in transfected cells; host or cells: Ba/F3 cells, retroviral pBabe-Puro vector (vector made by GeneScript from EGFR WT)

EGFR S720P = molecular target: T18, EGFR S720P (Homo sapiens, UniProt P00533, S720P); details: Classical-Like, 72 hours
T18 construct: expressed in transfected cells; host or cells: Ba/F3 cells, retroviral pBabe-Puro vector (vector made by GeneScript from EGFR WT)
Procedure: as §1, §2, §3

EGFR S811F = molecular target: T19, EGFR S811F (Homo sapiens, UniProt P00533, S811F); details: Classical-Like, 72 hours
T19 construct: expressed in transfected cells; host or cells: Ba/F3 cells, retroviral pBabe-Puro vector (vector made by GeneScript from EGFR WT)
Procedure: as §1, §2, §3

EGFR L718Q T790M = molecular target: T20, EGFR L718Q T790M (Homo sapiens, UniProt P00533, L718Q/T790M); details: T790M-like-3R, 72 hours
T20 construct: expressed in transfected cells; host or cells: Ba/F3

EGFR S768dupSVD = molecular target: T21, EGFR S768dupSVD (Homo sapiens, UniProt P00533, DUP768-770); details: Ex20, 72 hours
T21 construct: expressed in transfected cells; host or cells: Ba/F3 cells, retroviral pBabe-Puro vector
Procedure: (§7) Data represent the ratio of the IC50 value for a given TKI for cells with an ex20ins EGFR mutation to the IC50 value for cells with wildtype EGFR.
as §2, §6

EGFR S768I = molecular target: T22, EGFR S768I (Homo sapiens, UniProt P00533, S768I); details: PACC; S768I; Ba/F3; 72 hours
T22 construct: expressed in transfected cells; host or cells: Ba/F3

EGFR L858R G724S = molecular target: T23, EGFR L858R G724S (Homo sapiens, UniProt P00533, G724S/L858R); details: PACC; L858R G724S; Ba/F3; 72 hours
T23 construct: expressed in transfected cells; host or cells: Ba/F3 (retroviral transduction, pBabe-Puro based vectors)
Procedure: as §5, §2, §4

EGFR R776C = molecular target: T24, EGFR R776C (Homo sapiens, UniProt P00533, R776C); details: PACC; R776C; Ba/F3; 72 hours
T24 construct: host or cells: Ba/F3

EGFR Ex19del/C797S = molecular target: T25, EGFR Ex19del/C797S (Homo sapiens, UniProt P00533, C797S/DEL746-750); details: PACC; Ex19del/C797S; Ba/F3; 72 hours
T25 construct: expressed in transfected cells; host or cells: Ba/F3

EGFR S768I V774M = molecular target: T26, EGFR S768I V774M (Homo sapiens, UniProt P00533, S768I/V774M); details: PACC; S768I V774M; Ba/F3; 72 hours
T26 construct: host or cells: Ba/F3
Procedure: as §5, §2, §4

EGFR D770insNPG = molecular target: T27, EGFR D770insNPG (Homo sapiens, UniProt P00533, INS770NPG); details: Ex20, 72 hours
T27 construct: expressed in transfected cells; host or cells: Ba/F3 cells, retroviral pBabe-Puro vector
Procedure: as §7, §2, §6

Structure (SMILES) | ratio of IC50 for cells with mutant EGFR to IC50 for cells with wildtype EGFR (Mut/WT) (EGFR A763insFQEA) | ratio of IC50 for cells with mutant EGFR to IC50 for cells with wildtype EGFR (Mut/WT) (EGFR V769L) | ratio of IC50 for cells with mutant EGFR to IC50 for cells with wildtype EGFR (Mut/WT) (EGFR L858R T790M V843I) | ratio of IC50 for cells with mutant EGFR to IC50 for cells with wildtype EGFR (Mut/WT) (EGFR Ex19del T790M C797S) | ratio of IC50 for cells with mutant EGFR to IC50 for cells with wildtype EGFR (Mut/WT) (EGFR L861Q) | ratio of IC50 for cells with mutant EGFR to IC50 for cells with wildtype EGFR (Mut/WT) (EGFR Ex19del/L792H) | ratio of IC50 for cells with mutant EGFR to IC50 for cells with wildtype EGFR (Mut/WT) (EGFR K754E) | ratio of IC50 for cells with mutant EGFR to IC50 for cells with wildtype EGFR (Mut/WT) (EGFR S784F) | ratio of IC50 for cells with mutant EGFR to IC50 for cells with wildtype EGFR (Mut/WT) (EGFR L858R/T790M/C797S) | ratio of IC50 for cells with mutant EGFR to IC50 for cells with wildtype EGFR (Mut/WT) (EGFR E709K L858R) | ratio of IC50 for cells with mutant EGFR to IC50 for cells with wildtype EGFR (Mut/WT) (EGFR E709K G719S) | ratio of IC50 for cells with mutant EGFR to IC50 for cells with wildtype EGFR (Mut/WT) (EGFR N771dupN) | ratio of IC50 for cells with mutant EGFR to IC50 for cells with wildtype EGFR (Mut/WT) (EGFR G719S) | ratio of IC50 for cells with mutant EGFR to IC50 for cells with wildtype EGFR (Mut/WT) (EGFR Ex19del/T790M/L792H) | ratio of IC50 for cells with mutant EGFR to IC50 for cells with wildtype EGFR (Mut/WT) (EGFR K757R) | ratio of IC50 for cells with mutant EGFR to IC50 for cells with wildtype EGFR (Mut/WT) (EGFR Ex19del L718V) | ratio of IC50 for cells with mutant EGFR to IC50 for cells with wildtype EGFR (Mut/WT) (EGFR T725M) | ratio of IC50 for cells with mutant EGFR to IC50 for cells with wildtype EGFR (Mut/WT) (EGFR S720P) | ratio of IC50 for cells with mutant EGFR to IC50 for cells with wildtype EGFR (Mut/WT) (EGFR S811F) | ratio of IC50 for cells with mutant EGFR to IC50 for cells with wildtype EGFR (Mut/WT) (EGFR L718Q T790M) | other results
COc1cc2ncnc(Nc3cccc(Cl)c3F)c2cc1OC(=O)N1CCN(C)C[C@H]1C [AZD3759] | 0.02225 | 0.9765 | 9.625 | 9.625 | 0.08924 | 9.625 | 0.04651 | 0.0702 | 9.625 | 0.02202 | 0.3636 | 1.567 | 0.01105 | 9.625 | 0.7085 | 0.04127 | 0.1059 | 0.01834 | 0.006423 | 9.625 | ratio of IC50 for cells with mutant EGFR to IC50 for cells with wildtype EGFR (Mut/WT) (EGFR S768dupSVD): 3.075; ratio of IC50 for cells with mutant EGFR to IC50 for cells with wildtype EGFR (Mut/WT) (EGFR S768I): 0.145; ratio of IC50 for cells with mutant EGFR to IC50 for cells with wildtype EGFR (Mut/WT) (EGFR L858R G724S): 0.0005419; ratio of IC50 for cells with mutant EGFR to IC50 for cells with wildtype EGFR (Mut/WT) (EGFR R776C): 0.1522; ratio of IC50 for cells with mutant EGFR to IC50 for cells with wildtype EGFR (Mut/WT) (EGFR Ex19del/C797S): 0.0001375; ratio of IC50 for cells with mutant EGFR to IC50 for cells with wildtype EGFR (Mut/WT) (EGFR S768I V774M): 0.2555; ratio of IC50 for cells with mutant EGFR to IC50 for cells with wildtype EGFR (Mut/WT) (EGFR D770insNPG): 3.835
COc1cc2ncnc(Nc3ccc(F)c(Cl)c3)c2cc1NC(=O)/C=C/CN1CCCCC1 [Dacomitinib] | 0.0379 | 0.1402 | 20.06 | 38.03 | 0.002064 | 0.2436 | 0.03231 | 0.08997 | 41.69 | 0.007985 | 0.001358 | 6.261 | 0.002178 | 48.51 | 0.04087 | 0.0061 | 0.03062 | 0.03879 | 0.1673 | 4.784 | ratio of IC50 for cells with mutant EGFR to IC50 for cells with wildtype EGFR (Mut/WT) (EGFR S768dupSVD): 0.882; ratio of IC50 for cells with mutant EGFR to IC50 for cells with wildtype EGFR (Mut/WT) (EGFR S768I): 17.66; ratio of IC50 for cells with mutant EGFR to IC50 for cells with wildtype EGFR (Mut/WT) (EGFR L858R G724S): 0.0005712; ratio of IC50 for cells with mutant EGFR to IC50 for cells with wildtype EGFR (Mut/WT) (EGFR R776C): 0.1215; ratio of IC50 for cells with mutant EGFR to IC50 for cells with wildtype EGFR (Mut/WT) (EGFR Ex19del/C797S): 0.01762; ratio of IC50 for cells with mutant EGFR to IC50 for cells with wildtype EGFR (Mut/WT) (EGFR S768I V774M): 0.1407; ratio of IC50 for cells with mutant EGFR to IC50 for cells with wildtype EGFR (Mut/WT) (EGFR D770insNPG): 5.404
